# Values of other authors in patent publication US6224863A, “Antibiotic composition from alcaligenes species and method for making and using the same” (University of South Carolina, priority 1998, dated 2001).
# What was measured:
# Staphylococcus aureus = conditions: strains of Staphylococcus aureus
# S. epidermidis = conditions: strains of S. epidermidis
Structure (SMILES),antibiotic activity (Vibrio harveyi),antibacterial activity (Staphylococcus aureus),antibacterial activity (S. epidermidis),antibiotic activity (other marine bacteria)
CCCCCc1cc(O)c2ccccc2n1 [2-n-pentylquinolinol],exhibits activity,–,–,–
C=C(CC/C=C/C=C/CC(C)CC(=O)CC(O)CNC(=O)C(C)C(C)OC(N)=O)CC(C)C/C(C)=C/C(=O)O (centres unmarked) [kalimantacin B],–,only effective,only effective,–
Brc1[nH]c(Br)c(Br)c1Br [tetrabromopyrrole],–,–,–,effective against other marine bacteria
C=C(CC/C=C\C=C\CC(C)CC(=O)CC(O)CNC(=O)CC(C)OC(N)=O)CC(C)C/C(C)=C/C(=O)O (centres unmarked) [kalimantacin C],–,only effective,only effective,–
C=C(CC/C=C\C=C\CC(C)CC(=O)CC(O)CNC(=O)C(C)C(C)OC(N)=O)CC(C)C/C(C)=C/C(=O)O (centres unmarked) [kalimantacin A],–,only effective,only effective,–
